Tests used:
Type in all cases: in vivo
Ctenocephalides felis = Ctenocephalides felis in-vitro contact test, adult cat flea; settings: 5 μg/cm^2 (=500 g/ha), after 48 hours, adult cat fleas, read-out: efficacy (fleas dead or moribund)
Outline: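 Compound in acetone coated onto inner walls of glass tubes, e.g. 900 ppm giving 5 μg/cm². After drying, 5–10 adult C. felis added per tube and held at room temperature. At 48 h, fleas unable to escape a 45–50 °C heating plate within 5 min scored dead/moribund, giving % efficacy.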

Nezara viridula = Nezara viridula spray test; settings: 96 h, after 4 days, larvae on barley plants
Outline: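 Mortality (%) was assessed at day 4, from 0% (no bugs dead) to 100% (all dead). The spray solution was compound diluted to test concentration in water with 1000 ppm emulsifier and applied to barley carrying southern green stink bug larvae.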

Diabrotica balteata = Diabrotica balteata spray test; settings: Diabrotica balteata, in Triticum aestivum, 168 h, after 7 days, larvae on wheat seeds, read-out: efficacy (seedlings grown up); for pest or weed control at 80 µg/disc, 250 g/ha: 80 μg/well (=250 g/ha); for pest or weed control at 160 µg/disc, 500 g/ha: 160 μg/well (=500 g/ha)
Outline: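 Scoring at 7 days compares seedling growth with untreated, uninfested controls (100% = equal growth, 0% = none grown). Wheat seedlings germinated 1 day on agar, 5 per well, received a spray of test solution made in 1000 ppm emulsifier water. Each unit then received 10–20 beetle larvae.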

Boophilus microplus = Boophilus microplus injection test; settings: Rhipicephalus microplus, 168 h; 20 μg/animal injected into the abdomen; adult engorged female ticks; egg deposition after 7 days; read-out: efficacy (infertile eggs)
Outline: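 Efficacy, from 0% (all eggs fertile) to 100% (all infertile), was scored on eggs laid by five engorged adult females. Each female was injected intra-abdominally with 1 μl of compound solution in DMSO. Fertile egg laying was checked at 7 days, with uncertain eggs kept until hatching at about 42 days.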

Myzus persicae = Myzus persicae oral test; settings: 120 h, after 5 days
Outline: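 Aphid mortality (%) was recorded 5 days after a mixed Myzus persicae population began sucking, through parafilm, on compound solutions (acetone stock diluted with water) combined with sugar-supplemented IPL41 medium.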

[1] = tested on: Musca domestica strain WHO-N; assay: Musca domestica test (MUSCDO surface treatment & contact assay); settings: 24 hours after contact, read-out: efficacy (mortality); for mortality at 4 mg/m2: surface concentration 4 mg/m^2, exposure 30 minutes; for mortality at 20 mg/m2: surface concentration 20 mg/m^2, exposure 30 minutes
Description: Musca domestica test (MUSCDO surface treatment & contact assay)
(§1) Solvent: Aceton+2000 ppm rapeseed oil methyl ester (RME)
(§2) In order to produce a sufficient, active ingredient containing solution it is necessary to solve the test compound in the solvent-mix (acetone at 2 mg/ml/RME 2000 ppm). This solution is pipetted onto a glazed tile and after evaporation of the acetone, adult flies of the species Musca domestica strain WHO-N are placed onto the dried surface. The exposure time is 30 minutes.
Mortality in percent (%) is determined 24 hours after contact of the insects to the treated surface. 100% morality means that all tested insects are dead, whereas 0% means that no insect died.

[2] = tested on: Aedes aegypti strain MONHEIM; assay: Aedes aegypti test (AEDSAE surface treatment & contact assay); settings: 24 hours after contact, read-out: efficacy (mortality); for mortality at 4 mg/m2: surface concentration 4 mg/m^2, exposure 30 minutes; for mortality at 20 mg/m2: surface concentration 20 mg/m^2, exposure 30 minutes
Outline: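 Compound dissolved in acetone (2 mg/ml) with 2000 ppm rapeseed oil methyl ester, applied to glazed tile and dried; adult strain MONHEIM mosquitoes exposed 30 minutes. Percent mortality scored 24 hours after contact.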

[3] = tested on: Anopheles funestus strain FUMOZ-R; assay: Anopheles funestus test (ANPHFU surface treatment & contact assay); settings: 24 hours after contact, read-out: efficacy (mortality); for mortality at 4 mg/m2: surface concentration 4 mg/m^2, exposure 30 minutes; for mortality at 20 mg/m2: surface concentration 20 mg/m^2, exposure 30 minutes
Description: Anopheles funestus Test (ANPHFU Surface Treatment & Contact Assay)
as §1
as §2, with “mosquitoes” for “flies”, “Anopheles funestus” for “Musca domestica”, “FUMOZ-R (Hunt et al., Med. Vet. Entomol. 2005 September; 19(3): 271-275)” for “WHO-N”
Mortality in percent (%) is determined 24 hours after contact of the insects to the treated surface. 100% mortality means that all tested insects are dead, whereas 0% means that no insect died.

Structure (SMILES) | pest or weed control at 5 µg/cm2 (Ctenocephalides felis) | mortality at 100 g/ha (Nezara viridula) | mortality at 500 g/ha (Nezara viridula) | pest or weed control at 80 µg/disc, 250 g/ha (Diabrotica balteata) | pest or weed control at 160 µg/disc, 500 g/ha (Diabrotica balteata) | pest or weed control at 0.02 mg (Boophilus microplus) | mortality at 4 ppm (Myzus persicae) | mortality at 4 mg/m2 [1] | mortality at 20 mg/m2 [1] | mortality at 4 mg/m2 [2] | mortality at 20 mg/m2 [2] | mortality at 4 mg/m2 [3] | mortality at 20 mg/m2 [3] | mortality at 20 ppm (Myzus persicae; 20 ppm)
Cc1nc([C@H](C)NC(=O)c2cc(C(F)(F)F)cc(C(F)(F)F)c2)n(-c2ccc(C#N)cn2)n1 [Example I-056] | 100% | 100% | 100% | 100% | 100% | 100% | 100% | 90 to 100% | 90 to 100% | 90 to 100% | 90 to 100% |  |  | 
C[C@H](NC(=O)c1cc(Cl)cc(C(F)(F)F)c1)c1ncnn1-c1ncc(Cl)cc1F [Example I-013] |  |  | 100% | 100% | 100% | 100% |  |  | 90 to 100% | 90 to 100% | 90 to 100% | 85 to 100% | 90 to 100% | 
C[C@H](NC(=O)c1cc(Cl)cc(SC(F)(F)F)c1)c1ncnn1-c1ccc(C#N)cn1 [Example I-042] | 90% | 100% | 100% | 100% | 100% | 100% | 100% | 90 to 100% | 90 to 100% | 90 to 100% | 90 to 100% | 85 to 100% | 90 to 100% | 
C[C@H](NC(=O)c1cc(Cl)cc(OC(F)(F)F)c1)c1ncnn1-c1ccc(C#N)cn1 [Example I-041, 3-chloro-N-{(1S)-1-[1-(5-cyanopyridin-2-yl)-1H-1,2,4-triazol-5-yl]ethyl}-5-(trifluoromethoxy)benzamide] | 100% | 100% | 100% | 100% | 100% | 100% | 100% | 90 to 100% | 90 to 100% | 90 to 100% | 90 to 100% | 85 to 100% | 90 to 100% | 
C[C@H](NC(=O)c1cc(Cl)cc(C(F)(F)F)c1)c1ncnn1-c1cc(C#N)ccn1 [Example I-015] | 100% |  | 100% | 100% |  | 100% | 100% |  | 90 to 100% | 90 to 100% | 90 to 100% |  | 90 to 100% | 
C[C@H](NC(=O)c1cc(F)cc(C(F)(F)F)c1)c1ncnn1-c1ccc(C#N)cn1 [Example I-019] | 100% |  | 90% | 100% | 100% | 100% |  | 90 to 100% | 90 to 100% | 90 to 100% | 90 to 100% | 85 to 100% | 90 to 100% | 
C[C@H](NC(=O)c1cc(C(F)(F)F)cc(C(F)(F)F)c1)c1ncnn1-c1ccc(C#N)cn1 [Example I-052] | 90% | 100% | 100% | 100% | 100% | 100% | 100% | 90 to 100% | 90 to 100% | 90 to 100% | 90 to 100% | 85 to 100% |  | 
C[C@H](NC(=O)c1cc(Cl)cc(C(F)(F)F)c1)c1ncnn1-c1ccc(NC(=O)C2CC2)cn1 [Example I-034, 3-chloro-N-[(1S)-1-(1-{5-[(cyclopropylcarbonyl)amino]pyridin-2-yl}-1H-1,2,4-triazol-5-yl)ethyl]-5-(trifluoromethyl)benzamide] | 100% | 100% | 100% | 100% | 100% | 100% | 100% |  | 90 to 100% | 90 to 100% | 90 to 100% | 85 to 100% |  | 
C[C@H](NC(=O)c1cc(Cl)cc(S(F)(F)(F)(F)F)c1)c1ncnn1-c1ccc(C#N)cn1 [Example I-048] | 100% | 100% | 100% | 100% | 100% | 100% | 100% | 90 to 100% | 90 to 100% | 90 to 100% | 90 to 100% | 85 to 100% |  | 
C[C@H](NC(=O)c1cc(Cl)cc(C(F)(F)F)c1)c1ncnn1-c1ccc([N+](=O)[O-])cn1 [Example I-028] |  | 100% | 100% | 100% | 100% | 100% | 100% | 90 to 100% | 90 to 100% | 90 to 100% | 90 to 100% | 85 to 100% | 90 to 100% | 
CC(c1ncnn1-c1ccc(C#N)cn1)N(CC1CC1)C(=O)c1cc(Cl)cc(C(F)(F)F)c1 (stereo not drawn) [Example I-007] | 100% | 100% | 100% | 100% | 100% | 100% | 90% | 90 to 100% | 90 to 100% | 90 to 100% | 90 to 100% |  |  | 100%
C[C@H](NC(=O)c1cc(Cl)cc(C(F)(F)F)c1)c1ncnn1-c1ccc(C#N)cn1 [Example I-009] | 100% |  | 100% | 100% |  | 100% | 100% | 90 to 100% | 90 to 100% | 90 to 100% | 90 to 100% |  |  | 
C[C@H](NC(=O)c1cc(Cl)cc(Br)c1)c1ncnn1-c1ccc(C#N)cn1 [Example I-046] | 100% |  |  | 100% | 100% | 100% | 100% | 90 to 100% | 90 to 100% | 90 to 100% | 90 to 100% | 85 to 100% | 90 to 100% | 
C[C@H](NC(=O)c1cc(Cl)cc(Cl)c1)c1ncnn1-c1ccc(C#N)cn1 [Example I-047] | 100% |  | 100% | 100% | 100% | 100% |  | 90 to 100% | 90 to 100% | 90 to 100% | 90 to 100% | 85 to 100% | 90 to 100% | 
